Laboratory results from publication PMC6657668, “Porcine Beta-Defensin 2 Provides Protection Against Bacterial Infection by a Direct Bactericidal Activity and Alleviates Inflammation via Interference With the TLR4/NF-κB Pathway” (Frontiers in Immunology, 2019).
Where a SMILES comes first, the peptide text is derived from it.

System: p38
Experiment: Western blot of p38 and p-p38 in RAW 264.7 cells
Type: cell-based, mouse
Conditions: LPS 30 min with various concentrations of PBD-2 (Figure S4)
Method: RAW 264.7 cells were treated with LPS (1 μg/ml) alone or together with PBD-2 (10 μg/mL). […] Proteins were firstly analyzed with SDS-PAGE and then electro-transferred onto a PVDF (#ISEQ00010, Biosharp®, Beijing, China) membrane. The PVDF membrane was blocked with 1/100 bovine serum albumin (BSA, #V900933-100G, VETEC, Sigma-Aldrich®, St. Louis, MO, USA) at 10 μg/ml at 37°C for 2 h, washed with PBST five times, incubated with the antisera against p-p65 (# 3033), p65 (# 4764), p-ERK (# 4370), ERK (# 4695), p-p38 (# 4511), p38 (# 8690), p-JNK (# 4668), JNK (# 9258) (Cell Signaling Technology®, Danvers, MA, USA), and β-actin (# AA128, Beyotime®, Shanghai, China) at 2 μg/ml at 37°C for 2 h and washed five times again. The PVDF membrane was subsequently incubated with 1 μg/ml secondary antibody, namely, goat anti-rabbit IgG (# 7074S, Cell Signaling Technology®, Danvers, MA, USA), at 37°C for 2 h and washed five times. Lastly, immune-reactive bands were detected using an ECF Western blot system (Tanon 5200 Multi, Shanghai, China) and quantified using AlphaImager 2200 analysis software.
Supplementary file Image_4.TIF: Figure S4 Effects of PBD-2 on ERK, p38, and JNK signaling pathways. Cells were treated with LPS for 30 min with or without various concentrations of PBD-2. […] The signal intensity of each band was quantified (B–D). […]

CC[C@H](C)[C@H](NC(=O)[C@@H]1CSSC[C@@H]2NC(=O)[C@@H]3CCCN3C(=O)[C@H](CO)NC(=O)[C@H](Cc3ccccc3)NC(=O)[C@H](CC(N)=O)NC(=O)[C@@H]3CSSC[C@H](NC(=O)[C@H]([C@@H](C)O)NC(=O)CNC(=O)[C@H](CCC(=O)O)NC(=O)[C@H]([C@@H](C)CC)NC(=O)[C@H](CCCNC(=N)N)NC(=O)[C@H](CC(N)=O)NC(=O)[C@H](Cc4ccccc4)NC(=O)[C@H](CC(C)C)NC(=O)[C@@H]4CCCN4C2=O)C(=O)N[C@@H](Cc2ccc(O)cc2)C(=O)N[C@@H](CO)C(=O)NCC(=O)N[C@@H](CCCCN)C(=O)N[C@@H](C)C(=O)N[C@@H](CCCCN)C(=O)N[C@@H](CSSC[C@H](NC(=O)[C@@H](NC(=O)[C@H](Cc2ccc(O)cc2)NC(=O)[C@H](Cc2c[nH]cn2)NC(=O)[C@@H](N)CC(=O)O)[C@@H](C)CC)C(=O)N[C@@H](C)C(=O)N[C@@H](CCCCN)C(=O)N[C@@H](CCCCN)C(=O)NCC(=O)NCC(=O)N[C@@H]([C@@H](C)O)C(=O)N3)C(=O)N1)C(=O)N[C@@H](CCCNC(=N)N)C(=O)O [PBD-2, Porcine beta-defensin 2] (HELM PEPTIDE1{D.H.Y.I.C.A.K.K.G.G.T.C.N.F.S.P.C.P.L.F.N.R.I.E.G.T.C.Y.S.G.K.A.K.C.C.I.R}$PEPTIDE1,PEPTIDE1,5:R3-34:R3|PEPTIDE1,PEPTIDE1,12:R3-27:R3|PEPTIDE1,PEPTIDE1,17:R3-35:R3$$$V2.0; N-terminus and C-terminus assumed)
LPS-induced phosphorylation of p38: did not affect the LPS-induced phosphorylation of ERK, p38, and JNK
